This is an account of results in ChEMBL document CHEMBL1139859, “Structures of pahayokolides A and B, cyclic peptides from a Lyngbya sp” (J Nat Prod, 2007).

Starred links: 1 amine or outer side, 2 acyl side, 3 side chain; linkers in the order of their positions; H or OH if unused. Positions of bridges follow the written chain, without caps; N, C: chain ends. Non-standard residues stand in square brackets, D forms with d. Residues, ends and D or L forms follow the SMILES beside them. ξ: configuration not given here. X2 = CC(=O)N(C)[C@@H](CC(C)C)C(=O)O[C@@H](CC(O)C(O)CC(C)C)CC(N[*:2])C(O)C(=O)[*:1]; hPhe = N[C@@H](CCc1ccccc1)C(=O)O; X1 = C/C=C(/N[*:1])C(=O)[*:2]; Dhb = C/C=C(\N)C(=O)O; ξT = CC(O)C(N)C(=O)O

Assay [1] can be described thus: Cytotoxicity against human SKBR3 cells. As to conditions: SK-BR-3. The class given is cell-based.
For another assay, the system named is NCI-H460. In words: Cytotoxicity against human H460 cells. In kind it is cell-based.
The subject of a further assay is HT-29. In words: Cytotoxicity against human HT29 cells. The class given is cell-based.
The next assay concerns A498. In words: Cytotoxicity against human A498 cells. The class given is cell-based.
Another assay concerns CCRF-CEM. In words: Cytotoxicity against human CEM cells. The class given is cell-based.
For the next assay, the system named is SK-OV-3. In words: Cytotoxicity against human SKOV3 cells. In kind it is cell-based.
In the next assay the test system is U-251. In words: Cytotoxicity against human U251 cells. The class given is functional, cell-based.
In a further assay the test system is SK-MEL-28. In words: Cytotoxicity against human SK-MEL-28 cells. In kind it is cell-based.

With `C/C=C1\NC(=O)[C@H](Cc2ccccc2)NC(=O)[C@@H]2CCCN2C(=O)CNC(=O)[C@H](CCC(N)=O)NC(=O)C(O)C(C[C@H](CC(O)C(O)CC(C)C)OC(=O)[C@H](CC(C)C)N(C)C(C)=O)NC(=O)[C@@H]2CCCN2C(=O)[C@H](CCc2ccccc2)NC(=O)C(C(C)O)NC(=O)/C(=C\C)NC(=O)[C@H](CO)NC1=O` (stereo partly drawn) [PAHAYOKOLIDES A] (QGPF[Dhb]S[X1][ξT][hPhe]P; linker N-C via X2), the IC50 in assay [1] was found to be 16.7 µM; in the assay with NCI-H460 it was 2.13 µM; in the assay with HT-29 it was 44.6 µM; in the assay with A498, 2.61 µM; in the assay on CCRF-CEM, 3.27 µM; in the assay on SK-OV-3, 2.76 µM. The figures for the IC50 in the assay on U-251 and in the assay on SK-MEL-28 were 13.3 µM and 5.74 µM, respectively.
